In patent US11058636B2, “Dispersion process of adapalene in a gel preparation” (ZHAOKE (GUANGZHOU) OPHTHALMIC DRUG COMPANY LIMITED, priority 2017, dated 2021):
Like-named read-outs stand apart in the source and are kept apart here.

Legend:
[1] = Particle size of pulverized adapalene raw material, laser particle size analyzer, dry detection; type: physicochemical; settings: raw material after jet-mill pulverization, dry method detection (Example 3)
Description: Method: Taking the appropriate amount of this product, using Malvern MS3000 laser particle size analyzer, dry detection, D50 should not greater than 10 μm, D90 should not greater than 30 um.
After pulverization the raw materials of adapalene was subjected to dry method detection and D50 was found not more than 10 um, D90 was found not more than 30 um. Adapalene was pulverized using a jet mill to achieve the target particle size.

[2] = cited from earlier work
RARPβ = target: T1, RARPβ (Homo sapiens, UniProt P10826); settings: cited from earlier work
T1 sequence (P10826 1-455): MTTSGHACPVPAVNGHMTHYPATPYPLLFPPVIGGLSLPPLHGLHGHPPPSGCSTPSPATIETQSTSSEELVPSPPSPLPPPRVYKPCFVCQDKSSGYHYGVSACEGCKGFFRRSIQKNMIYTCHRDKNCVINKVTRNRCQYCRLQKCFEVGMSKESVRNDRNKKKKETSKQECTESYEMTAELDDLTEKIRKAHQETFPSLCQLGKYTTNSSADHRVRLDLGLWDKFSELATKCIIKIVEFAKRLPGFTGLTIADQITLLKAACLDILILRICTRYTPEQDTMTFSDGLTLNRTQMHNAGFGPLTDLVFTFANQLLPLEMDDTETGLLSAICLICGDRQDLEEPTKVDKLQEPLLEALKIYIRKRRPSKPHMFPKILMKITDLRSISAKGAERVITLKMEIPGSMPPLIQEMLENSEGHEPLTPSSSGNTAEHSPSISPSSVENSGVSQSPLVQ

RARγ = target: T2, RARγ (Homo sapiens, UniProt P13631); settings: cited from earlier work
T2 sequence (P13631 1-454): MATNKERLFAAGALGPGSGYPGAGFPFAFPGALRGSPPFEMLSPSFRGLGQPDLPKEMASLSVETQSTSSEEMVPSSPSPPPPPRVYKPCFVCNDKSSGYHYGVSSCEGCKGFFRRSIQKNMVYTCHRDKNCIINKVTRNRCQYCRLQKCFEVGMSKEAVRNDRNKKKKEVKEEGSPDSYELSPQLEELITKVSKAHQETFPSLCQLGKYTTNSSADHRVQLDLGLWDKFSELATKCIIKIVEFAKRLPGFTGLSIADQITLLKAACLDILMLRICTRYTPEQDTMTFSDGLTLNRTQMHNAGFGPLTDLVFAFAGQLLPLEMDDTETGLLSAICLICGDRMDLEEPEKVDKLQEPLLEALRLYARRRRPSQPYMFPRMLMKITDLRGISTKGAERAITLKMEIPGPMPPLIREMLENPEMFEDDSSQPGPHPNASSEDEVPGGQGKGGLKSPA

RARα = target: T3, RARα (Homo sapiens, UniProt P10276); settings: cited from earlier work
T3 sequence (P10276 1-462): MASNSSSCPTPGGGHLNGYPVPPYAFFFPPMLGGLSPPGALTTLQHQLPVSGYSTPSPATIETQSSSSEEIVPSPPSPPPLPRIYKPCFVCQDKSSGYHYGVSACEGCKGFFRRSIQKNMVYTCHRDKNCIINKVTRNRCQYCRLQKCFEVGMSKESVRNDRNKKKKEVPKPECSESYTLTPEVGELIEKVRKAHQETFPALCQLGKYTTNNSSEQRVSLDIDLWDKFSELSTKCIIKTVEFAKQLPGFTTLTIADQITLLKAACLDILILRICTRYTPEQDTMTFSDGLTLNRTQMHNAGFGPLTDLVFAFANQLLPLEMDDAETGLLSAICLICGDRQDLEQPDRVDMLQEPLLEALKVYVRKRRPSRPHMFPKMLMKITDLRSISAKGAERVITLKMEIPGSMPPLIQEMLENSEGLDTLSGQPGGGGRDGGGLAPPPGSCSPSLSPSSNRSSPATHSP

[3] = test system: glutamine invertase of keratinocytes; settings: in vitro; cited from earlier work
acne = settings: animals; cited from earlier work

D50 [1]: not more than 10 um
D90 [1]: not more than 30 um
Structure (SMILES): COc1ccc(-c2ccc3cc(C(=O)O)ccc3c2)cc1C12CC3CC(CC(C3)C1)C2 [Adapalene, 6-[3-(1-adamantyl)-4-methoxyphenyl]-2-naphthoic acid]
solubility ([2]; in ethanol): insoluble
solubility ([2]; in tetrahydrofuran): slightly soluble
solubility ([2]; in water): insoluble
binding to RARPβ (RARPβ): mainly binds
binding to RARγ (RARγ): mainly binds
binding to RARα (RARα): weak binding
inhibition of glutamine invertase of keratinocytes [3]: inhibits
effects in animal experiments (acne): acne dissolution and local anti-inflammatory effects
